Results published in BindingDB's records for doi:10.1016/S0960-894X(00)80020-7 (1993).

Tests used:
[1] = target: Thymidine kinase (Human herpesvirus 1); assay: Inhibition of HSV-1 Thymidine kinase
[2] = target: Thymidine kinase (Human herpesvirus 1); assay: Binding affinity against HSV-1 Thymidine kinase

Row | Structure (SMILES) | IC50 [1] [µM] | Ki [2] [µM]
1 | Cc1cn([C@H]2C[C@@H](O)[C@H](OC(C)(C)C)O2)c(=O)[nH]c1=O [1-((2R,4R,5R)-5-tert-Butoxy-4-hydroxy-tetrahydro-furan-2-yl)-5-methyl-1H-pyrimidine-2,4-dione] | > 50 | 
2 | C#C[C@H]1O[C@@H](n2cc(C)c(=O)[nH]c2=O)C[C@@H]1O [1-((2R,4S,5R)-5-Ethynyl-4-hydroxy-tetrahydro-furan-2-yl)-5-methyl-1H-pyrimidine-2,4-dione] | 3 | 2
3 | Cc1cn([C@H]2C[C@H](O)[C@@H](OC(C)(C)C)O2)c(=O)[nH]c1=O [1-((2R,4S,5S)-5-tert-Butoxy-4-hydroxy-tetrahydro-furan-2-yl)-5-methyl-1H-pyrimidine-2,4-dione] | > 50 | 
4 | Cc1cn([C@H]2C[C@@H](O)[C@H](OCCCc3ccccc3)O2)c(=O)[nH]c1=O [1-[(2R,4R,5R)-4-Hydroxy-5-(3-phenyl-propoxy)-tetrahydro-furan-2-yl]-5-methyl-1H-pyrimidine-2,4-dione] | > 50 | 
5 | Cc1cn([C@H]2C[C@H](O)[C@@H](OCCCc3ccccc3)O2)c(=O)[nH]c1=O [1-[(2R,4S,5S)-4-Hydroxy-5-(3-phenyl-propoxy)-tetrahydro-furan-2-yl]-5-methyl-1H-pyrimidine-2,4-dione] | 10 | 4.3

Next, values leading:

Row | IC50 [1] [µM] | Ki [2] [µM] | Structure (SMILES)
6 | > 50 |  | CCCO[C@@H]1O[C@@H](n2cc(C)c(=O)[nH]c2=O)C[C@H]1O [1-((2R,4R,5R)-4-Hydroxy-5-propoxy-tetrahydro-furan-2-yl)-5-methyl-1H-pyrimidine-2,4-dione]
7 | > 50 |  | CCO[C@@H]1O[C@@H](n2cc(C)c(=O)[nH]c2=O)C[C@H]1O [1-((2R,4R,5R)-5-Ethoxy-4-hydroxy-tetrahydro-furan-2-yl)-5-methyl-1H-pyrimidine-2,4-dione]
8 | > 50 |  | CCCO[C@H]1O[C@@H](n2cc(C)c(=O)[nH]c2=O)C[C@@H]1O [1-((2R,4S,5S)-4-Hydroxy-5-propoxy-tetrahydro-furan-2-yl)-5-methyl-1H-pyrimidine-2,4-dione]
9 | 50 |  | CCO[C@H]1O[C@@H](n2cc(C)c(=O)[nH]c2=O)C[C@@H]1O [1-((2R,4S,5S)-5-Ethoxy-4-hydroxy-tetrahydro-furan-2-yl)-5-methyl-1H-pyrimidine-2,4-dione]
